Several values for one entry are separate records, joined by “and”; a condition that tells them apart may be missing. Identical values can stand only once.
Target: T1, human GIVA cPLA2 (Homo sapiens, UniProt P47712)
T1 sequence (P47712 1-749): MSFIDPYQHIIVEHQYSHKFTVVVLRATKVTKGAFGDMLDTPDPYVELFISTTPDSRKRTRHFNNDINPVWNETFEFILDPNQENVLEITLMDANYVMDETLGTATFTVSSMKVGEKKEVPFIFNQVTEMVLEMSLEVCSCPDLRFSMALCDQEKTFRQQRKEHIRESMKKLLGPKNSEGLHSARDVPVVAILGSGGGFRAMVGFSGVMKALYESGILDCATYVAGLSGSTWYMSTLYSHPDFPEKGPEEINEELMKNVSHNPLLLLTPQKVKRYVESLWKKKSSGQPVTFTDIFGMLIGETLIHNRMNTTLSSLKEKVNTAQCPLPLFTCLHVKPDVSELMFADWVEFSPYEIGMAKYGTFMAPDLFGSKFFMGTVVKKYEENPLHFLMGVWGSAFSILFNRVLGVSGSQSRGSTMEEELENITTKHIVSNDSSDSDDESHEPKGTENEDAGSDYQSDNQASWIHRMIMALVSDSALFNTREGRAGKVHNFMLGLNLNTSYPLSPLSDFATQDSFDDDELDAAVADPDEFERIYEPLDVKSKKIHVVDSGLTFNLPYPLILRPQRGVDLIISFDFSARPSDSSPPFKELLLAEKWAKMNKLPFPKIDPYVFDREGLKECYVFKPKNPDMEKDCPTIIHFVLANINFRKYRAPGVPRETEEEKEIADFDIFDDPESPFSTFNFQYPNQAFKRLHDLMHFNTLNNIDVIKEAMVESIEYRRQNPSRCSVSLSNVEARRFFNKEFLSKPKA
Assay: In vitro mixed micelle assay, GIVA cPLA2
Assay type: biochemical
Conditions: Table 2; mole fraction of inhibitor in the total substrate interface for 50% inhibition
Method: (§1) At first, the percent of inhibition for each PLA2 enzyme at 0.091 mole fraction of each inhibitor was determined. […] The XI(50) is the mole fraction of the inhibitor in the total substrate interface required to inhibit the enzyme activity by 50%. […] (ii) GVI iPLA2 substrate mixed-micelles were composed of 400 μM Triton X-100, 98.3 μM PAPC, and 1.7 μM ^14C-labeled PAPC in buffer containing 100 mM HEPES, pH 7.5, 2 mM ATP, and 4 mM DTT; (iii) GV sPLA2 substrate mixed-micelles were composed of 400 μM Triton X-100, 98.3 μM PAPC, and 1.7 μM ^14C-labeled PAPC in buffer containing 50 mMTris, pH 8.0, and 5 mM […] CaCl2.

Which “GIVA cPLA2 XI(50)” value does the source give for `CCCCCCCCc1ccc(OCC(=O)c2nc(C(=O)OC)cs2)cc1` [Compound A, Methyl 2-(2-(4-octylphenoxy)acetyl)thiazole-4-carboxylate] here?
Its value is 0.011 mole fraction.

Same assay, conditions: Tables 2 and 4

Which “GIVA cPLA2 % Inhibition” value does the source give for `CCCCCCCCc1ccc(OCC(=O)c2nc(C(=O)OC)cs2)cc1` [Compound A, Methyl 2-(2-(4-octylphenoxy)acetyl)thiazole-4-carboxylate] here?
Its value is >90%.

Same assay, conditions: mixed micelle assay, comment on Table 6

`O=C(COc1ccc(-c2ccccc2)cc1)c1nccs1` [Compound B, 2-(Biphenyl-4-yloxy)-1-(thiazol-2-yl)ethanone] was tested. Which “inhibition of GIVA cPLA2 (in words)” value did it give?
The value was “did not present any interesting inhibition”.

Which “inhibition of GIVA cPLA2 (in words)” value does the source give for `O=C(COc1ccc(F)cc1)c1nccs1` [Compound C, 2-(4-Fluorophenoxy)-1-(thiazol-2-yl)ethanone] here?
Its value is “did not present any interesting inhibition”.

With `O=C(COc1ccccc1)c1nccs1` [Compound D, 2-Phenoxy-1-(thiazol-2-yl)ethanone] as the compound, how does the “inhibition of GIVA cPLA2 (in words)” value read?
The value was “did not present any interesting inhibition”.

Same assay, conditions: mixed micelles; 0.091 mole fraction of inhibitor; Table 6; read-out: GIVA cPLA2 % Inhib

For `CCCCCCCCc1ccc(OCC(=O)c2nc(C(=O)OC)cs2)cc1` [Compound A, Methyl 2-(2-(4-octylphenoxy)acetyl)thiazole-4-carboxylate], which inhibition at 0.091 mole fraction is on record?
Its inhibition at 0.091 mole fraction is > 90%.

Which inhibition at 0.091 mole fraction does the source give for `O=C(COc1ccc(-c2ccccc2)cc1)c1nccs1` [Compound B, 2-(Biphenyl-4-yloxy)-1-(thiazol-2-yl)ethanone] here?
The inhibition at 0.091 mole fraction was 80%.

With `O=C(COc1ccc(F)cc1)c1nccs1` [Compound C, 2-(4-Fluorophenoxy)-1-(thiazol-2-yl)ethanone] as the compound, how does the inhibition at 0.091 mole fraction read?
The inhibition at 0.091 mole fraction was 58%.

With `O=C(COc1ccccc1)c1nccs1` [Compound D, 2-Phenoxy-1-(thiazol-2-yl)ethanone] as the compound, how does the inhibition at 0.091 mole fraction read?
Its inhibition at 0.091 mole fraction is 40%.

Same assay, conditions: mixed micelles; mole fraction of inhibitor for 50% inhibition; Table 6

With `CCCCCCCCc1ccc(OCC(=O)c2nc(C(=O)OC)cs2)cc1` [Compound A, Methyl 2-(2-(4-octylphenoxy)acetyl)thiazole-4-carboxylate] as the compound, how does the “GIVA cPLA2 XI(50)” value read?
The value was 0.011 mole fraction and 0.011 ± 0.005 mole fraction.

Target: T2, human GV sPLA2 (Homo sapiens, UniProt P39877)
T2 sequence (P39877 21-138): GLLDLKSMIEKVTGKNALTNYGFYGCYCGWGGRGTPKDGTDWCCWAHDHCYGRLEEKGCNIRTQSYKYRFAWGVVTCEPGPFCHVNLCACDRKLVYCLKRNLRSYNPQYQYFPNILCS
Assay: In vitro mixed micelle assay, GV sPLA2
Assay type: biochemical
Conditions: Tables 2 and 4
Method: as §1

With `CCCCCCCCc1ccc(OCC(=O)c2nc(C(=O)OC)cs2)cc1` [Compound A, Methyl 2-(2-(4-octylphenoxy)acetyl)thiazole-4-carboxylate] as the compound, how does the “GV sPLA2 % Inhibition” value read?
Its value is 41.1%.

Same assay, conditions: mixed micelles; 0.091 mole fraction of inhibitor; Table 6; read-out: GV sPLA2 % Inhib

For `CCCCCCCCc1ccc(OCC(=O)c2nc(C(=O)OC)cs2)cc1` [Compound A, Methyl 2-(2-(4-octylphenoxy)acetyl)thiazole-4-carboxylate], which inhibition at 0.091 mole fraction is on record?
The inhibition at 0.091 mole fraction was 41%.

For `O=C(COc1ccc(-c2ccccc2)cc1)c1nccs1` [Compound B, 2-(Biphenyl-4-yloxy)-1-(thiazol-2-yl)ethanone], which inhibition at 0.091 mole fraction is on record?
The inhibition at 0.091 mole fraction was 41%.

With `O=C(COc1ccc(F)cc1)c1nccs1` [Compound C, 2-(4-Fluorophenoxy)-1-(thiazol-2-yl)ethanone] as the compound, how does the inhibition at 0.091 mole fraction read?
Its inhibition at 0.091 mole fraction is 4%.

How did the inhibition at 0.091 mole fraction turn out when `O=C(COc1ccccc1)c1nccs1` [Compound D, 2-Phenoxy-1-(thiazol-2-yl)ethanone] was run?
The inhibition at 0.091 mole fraction was 0%.

Test system: AA release in SW982 cells
Assay: Ex vivo cellular arachidonic acid (AA) release assay, IL-1β stimulated
Assay type: cell-based, human
Conditions: Homo sapiens; SW982 cells; tested 0-20 μM; Tables 2 and 4; read-out: AA release SW982 cells (0-20 μM) IC50
Method: (§2) The effect of the oxothiazoles synthesized on the release of AA and OA in synoviocytes was evaluated as previously described.^54 The percent inhibition of AA and OA was determined at a 10 μM inhibitor concentration, while for the determination of the IC50 value the inhibitors were tested in a 0-20 μM range after IL-1β stimulation for 4 h.
(§3) The human synovial sarcoma cell line SW982 was from ATCC (UK) and was used as a model system to monitor AA/OA release and activation of GIVA cPLA2. SW982 cells were passaged bi-weekly by routine trypsin detachment and kept in a sub-confluent state. The cells were maintained in Dulbecco's Modified Eagle Medium (DMEM) supplemented with 10% FBS, 0.1 mg/mL gentamicin and 0.3 mg/mL L-glutamine at 37° C. with 10% CO2. For AA release, 5*10^5 cells were seeded pr well in a 48-well per plate format. Experiments were performed at 3 days post-confluency following overnight serum deprivation in serum-free DMEM to ensure differentiation and synchronization of the cells.
(§4) AA and OA release was analyzed as previously described.^54 At 2 days post-confluency, SW982 cells were serum-starved and labelled overnight with ^3H-AA (0.4 μCi/ml) and ^14C-OA (0.067 μCi/ml) in serum-free DMEM. Prior to the addition of oxothiazoles, the cells were washed twice with PBS containing fBSA (2 mg/ml) and PBS in order to remove unincorporated radioactivity. Cells were pretreated (1 h) with oxothiazoles prior to IL-1β stimulation (10 ng/mL, 4 h). Following IL-1β stimulation, the supernatants were cleared of detached cells by centrifugation (13000 rpm, 5 min). The release of ^3H-AA and ^14C-OA from the cells was assessed by liquid scintillation counting (LS 6500 Multi-Purpose Scintillation Counter, Beckman Coulter, Inc (USA). Adherent cells were dissolved in 1N NaOH in order to determine incorporated ^3H-AA and ^14C-OA in the cells by liquid scintillation counting. In all experiments, DMSO was included for vehicle control ([…]0.05%).
(§5) Following treatments, cells were routinely observed by microscopy to ensure unaltered cell morphology, integrity and viability. The results are given as inhibition of released ^3H-AA and ^14C-OA in the supernatants relative to total ^3H-AA and ^14C-OA incorporated into the cells, from at least three independent experiments performed in triplicates.

`CCCCCCCCc1ccc(OCC(=O)c2nc(C(=O)OC)cs2)cc1` [Compound A, Methyl 2-(2-(4-octylphenoxy)acetyl)thiazole-4-carboxylate] was tested. Which IC50 did it give?
Its IC50 is ~600 nM.

With `O=C(COc1ccc(-c2ccccc2)cc1)c1nccs1` [Compound B, 2-(Biphenyl-4-yloxy)-1-(thiazol-2-yl)ethanone] as the compound, how does the IC50 read?
The IC50 was ~2500 nM.

How did the IC50 turn out when `O=C(COc1ccc(F)cc1)c1nccs1` [Compound C, 2-(4-Fluorophenoxy)-1-(thiazol-2-yl)ethanone] was run?
Its IC50 is > 20000 nM.

`O=C(COc1ccccc1)c1nccs1` [Compound D, 2-Phenoxy-1-(thiazol-2-yl)ethanone] was tested. Which IC50 did it give?
Its IC50 is > 20000 nM.

Same assay, conditions: Homo sapiens; SW982 synoviocytes; 4 h IL-1β stimulation; % inhibition at 10 pM oxothiazole (so in the source); read-out: AA release % Inhib

How did the inhibition turn out when `CCCCCCCCc1ccc(OCC(=O)c2nc(C(=O)OC)cs2)cc1` [Compound A, Methyl 2-(2-(4-octylphenoxy)acetyl)thiazole-4-carboxylate] was run?
Its inhibition is > 90%.

How did the inhibition turn out when `O=C(COc1ccc(-c2ccccc2)cc1)c1nccs1` [Compound B, 2-(Biphenyl-4-yloxy)-1-(thiazol-2-yl)ethanone] was run?
The inhibition was 73%.

With `O=C(COc1ccc(F)cc1)c1nccs1` [Compound C, 2-(4-Fluorophenoxy)-1-(thiazol-2-yl)ethanone] as the compound, how does the inhibition read?
The inhibition was 0%.

For `O=C(COc1ccccc1)c1nccs1` [Compound D, 2-Phenoxy-1-(thiazol-2-yl)ethanone], which inhibition is on record?
Its inhibition is 12%.

Same assay, conditions: Homo sapiens; SW982 synoviocytes; tested in 0-20 μM range; 4 h IL-1β stimulation; read-out: AA release IC50

`CCCCCCCCc1ccc(OCC(=O)c2nc(C(=O)OC)cs2)cc1` [Compound A, Methyl 2-(2-(4-octylphenoxy)acetyl)thiazole-4-carboxylate] was tested. Which IC50 did it give?
Its IC50 is 600 nM.

With `O=C(COc1ccc(-c2ccccc2)cc1)c1nccs1` [Compound B, 2-(Biphenyl-4-yloxy)-1-(thiazol-2-yl)ethanone] as the compound, how does the IC50 read?
Its IC50 is 2800 nM.

`O=C(COc1ccccc1)c1nccs1` [Compound D, 2-Phenoxy-1-(thiazol-2-yl)ethanone] was tested. Which IC50 did it give?
Its IC50 is > 20000 nM.

Same assay, conditions: SW982 synoviocytes

How did the “inhibition of the AA release (in words)” value turn out when `O=C(COc1ccc(-c2ccccc2)cc1)c1nccs1` [Compound B, 2-(Biphenyl-4-yloxy)-1-(thiazol-2-yl)ethanone] was run?
Its value is “interesting inhibition”.

Test system: OA release in SW982 cells
Assay: Ex vivo cellular oleic acid (OA) release assay, IL-1β stimulated
Assay type: cell-based
Conditions: Homo sapiens; SW982 synoviocytes; 4 h IL-1β stimulation; % inhibition at 10 pM oxothiazole (so in the source); read-out: OA release % Inhib
Method: as §2, §3, §4, §5

How did the inhibition at 10 µM turn out when `CCCCCCCCc1ccc(OCC(=O)c2nc(C(=O)OC)cs2)cc1` [Compound A, Methyl 2-(2-(4-octylphenoxy)acetyl)thiazole-4-carboxylate] was run?
Its inhibition at 10 µM is 40%.

How did the inhibition at 10 µM turn out when `O=C(COc1ccc(-c2ccccc2)cc1)c1nccs1` [Compound B, 2-(Biphenyl-4-yloxy)-1-(thiazol-2-yl)ethanone] was run?
Its inhibition at 10 µM is 25%.

With `O=C(COc1ccc(F)cc1)c1nccs1` [Compound C, 2-(4-Fluorophenoxy)-1-(thiazol-2-yl)ethanone] as the compound, how does the inhibition at 10 µM read?
Its inhibition at 10 µM is 25%.

How did the inhibition at 10 µM turn out when `O=C(COc1ccccc1)c1nccs1` [Compound D, 2-Phenoxy-1-(thiazol-2-yl)ethanone] was run?
The inhibition at 10 µM was 20%.

From US11034666B2, “Anti-inflammatory and antitumor 2-oxothiazoles and 2-oxothiophenes compounds” (Avexxin AS, priority 2013, dated 2021)
